Assays:
[1] = tested on: HL-60, TB; test: NCI one-dose screening, leukemia HL-60, TB; assay type: cell-based, human; details: HL-60(TB)
[2] = tested on: K562cell line; test: NCI one-dose screening, leukemia K562; assay type: cell-based, human; details: K562, 10 μM
[3] = tested on: EKVX; test: NCI one-dose screening, non-small cell lung cancer EKVX; assay type: cell-based, human; details: EKVX
[4] = tested on: NCI-H226; test: NCI one-dose screening, non-small cell lung cancer NCI-H226; assay type: cell-based, human; details: NCI-H226, 10 μM
[5] = tested on: NCI-H23; test: NCI one-dose screening, non-small cell lung cancer NCI-H23; assay type: cell-based, human; details: NCI-H23, 10 μM
[6] = tested on: NCI-H460; test: NCI one-dose screening, non-small cell lung cancer NCI-H460; assay type: cell-based, human; details: NCI-H460, 10 μM
[7] = tested on: NCI-H522; test: NCI one-dose screening, non-small cell lung cancer NCI-H522; assay type: cell-based, human; details: NCI-H522, 10 μM
[8] = tested on: A549/ATCC; test: NCI one-dose screening, non-small cell lung cancer A549/ATCC; assay type: cell-based, human; details: A549/ATCC
[9] = tested on: COLO 205; test: NCI one-dose screening, colon cancer COLO 205; assay type: cell-based, human; details: COLO 205, 10 μM
[10] = tested on: HCC-2998; test: NCI one-dose screening, colon cancer HCC-2998; assay type: cell-based, human; details: HCC-2998, 10 μM
[11] = tested on: HCT-116; test: NCI one-dose screening, colon cancer HCT-116; assay type: cell-based, human; details: HCT-116, 10 μM
[12] = tested on: HCT-15; test: NCI one-dose screening, colon cancer HCT-15; assay type: cell-based, human; details: HCT-15, 10 μM
[13] = tested on: KM12; test: NCI one-dose screening, colon cancer KM12; assay type: cell-based, human; details: KM12, 10 μM
[14] = tested on: HT29; test: NCI one-dose screening, colon cancer HT29; assay type: cell-based, human; details: HT29, 10 μM
[15] = tested on: SF-268; test: NCI one-dose screening, CNS cancer SF-268; assay type: cell-based, human; details: SF-268, 10 μM
[16] = tested on: SNB-19; test: NCI one-dose screening, CNS cancer SNB-19; assay type: cell-based, human; details: SNB-19, 10 μM
[17] = tested on: SNB-75; test: NCI one-dose screening, CNS cancer SNB-75; assay type: cell-based, human; details: SNB-75, 10 μM
[18] = tested on: U251; test: NCI one-dose screening, CNS cancer U251; assay type: cell-based, human; details: U251, 10 μM
[19] = tested on: MALME-3M; test: NCI one-dose screening, melanoma MALME-3M; assay type: cell-based, human; details: MALME-3M
[20] = tested on: M14; test: NCI one-dose screening, melanoma M14; assay type: cell-based, human; details: M14, 10 μM
[21] = tested on: UACC-62; test: NCI one-dose screening, melanoma UACC-62; assay type: cell-based, human; details: UACC-62, 10 μM
[22] = tested on: UACC-257; test: NCI one-dose screening, melanoma UACC-257; assay type: cell-based, human; details: UACC-257, 10 μM
[23] = tested on: SK-MEL-2; test: NCI one-dose screening, melanoma SK-MEL-2; assay type: cell-based, human; details: SK-MEL-2, 10 μM
[24] = tested on: SK-MEL-28; test: NCI one-dose screening, melanoma SK-MEL-28; assay type: cell-based, human; details: SK-MEL-28, 10 μM
[25] = tested on: SK-MEL-5; test: NCI one-dose screening, melanoma SK-MEL-5; assay type: cell-based, human; details: SK-MEL-5, 10 μM
[26] = tested on: IGROV1; test: NCI one-dose screening, ovarian cancer IGROV1; assay type: cell-based, human; details: IGROV1, 10 μM
[27] = tested on: OVCAR-3; test: NCI one-dose screening, ovarian cancer OVCAR-3; assay type: cell-based, human; details: OVCAR-3, 10 μM
[28] = tested on: OVCAR-4; test: NCI one-dose screening, ovarian cancer OVCAR-4; assay type: cell-based, human; details: OVCAR-4, 10 μM
[29] = tested on: OVCAR-8; test: NCI one-dose screening, ovarian cancer OVCAR-8; assay type: cell-based, human; details: OVCAR-8, 10 μM
[30] = tested on: 786-O; test: NCI one-dose screening, renal cancer 786-O; assay type: cell-based, human; details: 786-0, 10 μM
[31] = tested on: CAKI-1; test: NCI one-dose screening, renal cancer CAKI-1; assay type: cell-based, human; details: CAKI-1, 10 μM
[32] = tested on: ACHN; test: NCI one-dose screening, renal cancer ACHN; assay type: cell-based, human; details: ACHN
[33] = tested on: SN12C; test: NCI one-dose screening, renal cancer SN12C; assay type: cell-based, human; details: SN12C
[34] = tested on: TK-10; test: NCI one-dose screening, renal cancer TK-10; assay type: cell-based, human; details: TK-10, 10 μM
[35] = tested on: RXF, 393; test: NCI one-dose screening, renal cancer RXF, 393; assay type: cell-based, human; details: RXF 393, 10 μM
[36] = tested on: DU145; test: NCI one-dose screening, prostate cancer DU145; assay type: cell-based, human; details: DU145, 10 μM
[37] = tested on: PC-3; test: NCI one-dose screening, prostate cancer PC-3; assay type: cell-based, human; details: PC-3, 10 μM
[38] = tested on: MCF7; test: NCI one-dose screening, breast cancer MCF7; assay type: cell-based, human; details: MCF7, 10 μM
[39] = tested on: HS 578-T; test: NCI one-dose screening, breast cancer HS 578-T; assay type: cell-based, human; details: Breast cancer, HS 578T, 10 μM
[40] = tested on: MDA-MB-231/ATCC; test: NCI one-dose screening, breast cancer MDA-MB-231/ATCC; assay type: cell-based, human; details: MDA-MB-231/ATCC
[41] = tested on: MDA-MB-468; test: NCI one-dose screening, breast cancer MDA-MB-468; assay type: cell-based, human; details: MDA-MB-468, 10 μM
[42] = tested on: NCl/ADR-RES; test: NCI one-dose screening, breast cancer NCl/ADR-RES; assay type: cell-based, human; details: Ovarian cancer, NCI/ADR-RES
[43] = tested on: MDA, -MB-435; test: NCI one-dose screening, breast cancer MDA, -MB-435; assay type: cell-based, human; details: Melanoma, MDA-MB-435, 10 μM
[44] = tested on: human tumor cell lines; test: NCI one-dose screening, mean, delta and range of growth percent over all cell lines tested; assay type: cell-based; details: for Growth Percent (10 μM), Delta: Delta over all cell lines tested; for Growth Percent (10 μM), Mean: Mean over all cell lines tested; for Growth Percent (10 μM), Range: Range over all cell lines tested

`CC(C)Sc1cc2c(c3nsnc13)C(=O)c1ccccc1C2=O` [C18, 4-(isopropylthio)anthra[2,1-c][1,2,5] thiadiazol-6,11-dione] was tested, and the “Growth Percent (10 μM)” value [1] was −41.24%, the “Growth Percent (10 μM)” value [2] was −26.17% and the “Growth Percent (10 μM)” value [3] was −6.58%. For the same compound, the “Growth Percent (10 μM)” value [4] was 10.21%, the “Growth Percent (10 μM)” value [5] was −42.19% and the “Growth Percent (10 μM)” value [6] was 4.92%. For the same compound, the “Growth Percent (10 μM)” value [7] was −59.54%, the “Growth Percent (10 μM)” value [8] was −8.14% and the “Growth Percent (10 μM)” value [9] was 102.47%. The “Growth Percent (10 μM)” value [10] was 21.00%, the “Growth Percent (10 μM)” value [11] was −36.70% and the “Growth Percent (10 μM)” value [12] was 15.31%. The “Growth Percent (10 μM)” value [13] was 19.33%, the “Growth Percent (10 μM)” value [14] was 48.08% and the “Growth Percent (10 μM)” value [15] was 7.06%. For the same compound, the “Growth Percent (10 μM)” value [16] was 21.85%, the “Growth Percent (10 μM)” value [17] was 9.12% and the “Growth Percent (10 μM)” value [18] was −23.10%. The “Growth Percent (10 μM)” value [19] was −86.04%, the “Growth Percent (10 μM)” value [20] was −31.54% and the “Growth Percent (10 μM)” value [21] was −57.09%. The “Growth Percent (10 μM)” value [22] was −91.69%, the “Growth Percent (10 μM)” value [23] was −55.62% and the “Growth Percent (10 μM)” value [24] was −8.32%. The “Growth Percent (10 μM)” value [25] was −99.20%, the “Growth Percent (10 μM)” value [26] was −32.91% and the “Growth Percent (10 μM)” value [27] was −60.32%. For the same compound, the “Growth Percent (10 μM)” value [28] was −100.00%, the “Growth Percent (10 μM)” value [29] was −22.64% and the “Growth Percent (10 μM)” value [30] was 12.37%. For the same compound, the “Growth Percent (10 μM)” value [31] was −5.68%, the “Growth Percent (10 μM)” value [32] was 0.80% and the “Growth Percent (10 μM)” value [33] was −28.62%. The “Growth Percent (10 μM)” value [34] was 30.33%, the “Growth Percent (10 μM)” value [35] was 13.64% and the “Growth Percent (10 μM)” value [36] was 6.66%. The “Growth Percent (10 μM)” value [37] was −13.43%, the “Growth Percent (10 μM)” value [38] was −68.82% and the “Growth Percent (10 μM)” value [39] was −9.16%. For the same compound, the “Growth Percent (10 μM)” value [40] was −35.94%, the “Growth Percent (10 μM)” value [41] was −78.76% and the “Growth Percent (10 μM)” value [42] was −24.93%. The “Growth Percent (10 μM)” value [43] was −79.28%, the “Growth Percent (10 μM), Delta” value [44] was 78.36% and the “Growth Percent (10 μM), Mean” value [44] was −21.64%. For the same compound, the “Growth Percent (10 μM), Range” value [44] was 202.47%.

In the case of `Cc1ccc(Nc2cc3c(c4nsnc24)C(=O)c2ccccc2C3=O)cc1` [C64, 4-(p-tolylamino)anthra[2,1-c][1,2,5] thiadiazol-6,11-dione], the “Growth Percent (10 μM)” value [1] is reported as 46.13%, the “Growth Percent (10 μM)” value [2] is reported as 33.45% and the “Growth Percent (10 μM)” value [3] is reported as 82.17%. For the same compound, the “Growth Percent (10 μM)” value [4] was 66.61%, the “Growth Percent (10 μM)” value [5] was 45.87% and the “Growth Percent (10 μM)” value [6] was 21.80%. The “Growth Percent (10 μM)” value [7] was 53.06%, the “Growth Percent (10 μM)” value [8] was 56.25% and the “Growth Percent (10 μM)” value [9] was 100.68%. For the same compound, the “Growth Percent (10 μM)” value [10] was 95.82%, the “Growth Percent (10 μM)” value [11] was 31.32% and the “Growth Percent (10 μM)” value [12] was 32.24%. The “Growth Percent (10 μM)” value [13] was 64.56%, the “Growth Percent (10 μM)” value [14] was 96.29% and the “Growth Percent (10 μM)” value [15] was 52.27%. The “Growth Percent (10 μM)” value [16] was 82.28%, the “Growth Percent (10 μM)” value [17] was 80.91% and the “Growth Percent (10 μM)” value [18] was 34.17%. For the same compound, the “Growth Percent (10 μM)” value [19] was 78.41%, the “Growth Percent (10 μM)” value [20] was 76.72% and the “Growth Percent (10 μM)” value [21] was 67.41%. The “Growth Percent (10 μM)” value [22] was 71.17%, the “Growth Percent (10 μM)” value [23] was 93.85% and the “Growth Percent (10 μM)” value [24] was 74.97%. For the same compound, the “Growth Percent (10 μM)” value [25] was 24.13%, the “Growth Percent (10 μM)” value [26] was 49.40% and the “Growth Percent (10 μM)” value [27] was 57.92%. For the same compound, the “Growth Percent (10 μM)” value [28] was 31.44%, the “Growth Percent (10 μM)” value [29] was 53.96% and the “Growth Percent (10 μM)” value [30] was 74.18%. For the same compound, the “Growth Percent (10 μM)” value [31] was 50.33%, the “Growth Percent (10 μM)” value [32] was 57.60% and the “Growth Percent (10 μM)” value [33] was 74.58%. The “Growth Percent (10 μM)” value [34] was 95.15%, the “Growth Percent (10 μM)” value [35] was 71.05% and the “Growth Percent (10 μM)” value [36] was 68.26%. For the same compound, the “Growth Percent (10 μM)” value [37] was 45.73%, the “Growth Percent (10 μM)” value [38] was 46.59% and the “Growth Percent (10 μM)” value [39] was 78.75%. For the same compound, the “Growth Percent (10 μM)” value [40] was 73.83%, the “Growth Percent (10 μM)” value [41] was 58.18% and the “Growth Percent (10 μM)” value [42] was 61.34%. The “Growth Percent (10 μM)” value [43] was 65.53%, the “Growth Percent (10 μM), Delta” value [44] was 48.49% and the “Growth Percent (10 μM), Mean” value [44] was 61.35%. For the same compound, the “Growth Percent (10 μM), Range” value [44] was 96.99%.

Source: patent US8877748B2, “Heterocyclic fused anthraquinone derivatives, manufacturing method and pharmaceutical composition using thereof” (National Defense Medical Center, priority 2012, dated 2014)
